Results on 51 compounds are retold here after PubChem BioAssay AID1996.

In general, solubility (kinetic) refers to solubility judged after dilution from a stock solution rather than from solid.

Converted amounts (≈) assume the structure as drawn.

The conditions of the data set: buffer; pH 7.4; 200.0 µM.
For the compound `CCCCn1c(=S)[nH]c2ccc(N3CCOCC3)cc2c1=O`, the kinetic solubility worked out at 4.3 µg/mL (≈ 13.5 µM). Under `COC(=O)c1ccc(C(=S)NCC2(N(C)C)CCCCC2)cc1` stands 45.6 µg/mL (≈ 136 µM); under `Brc1cc2c(cc1-c1nc3ccccc3s1)OCO2`, below 0.7 µg/mL. `CCOC(=O)CN1N=C(c2ccc(C)cc2)CCC1=O` yielded a kinetic solubility above 41.1 µg/mL. The result for `Cc1ccc(C)c(S(=O)(=O)N2CCN(C(=O)c3cccnc3)CC2)c1` reads 50.8 µg/mL (≈ 141 µM); that for `CN(C)S(=O)(=O)c1ccc(=S)[nH]c1`, 12.2 µg/mL (≈ 55.9 µM); that for `CC(Oc1ccccc1)C(=O)Nc1nc(-c2ccncc2)cs1` (stereo unspecified), 2.6 µg/mL (≈ 7.99 µM). The result for `COc1ccc(Nc2ncnc3sc(-c4ccccc4)cc23)c(OC)c1` reads 0.6 µg/mL (≈ 1.65 µM). The result for `COc1ccc(N)cc1NC(=O)CN1CCCC1` reads above 37.4 µg/mL; that for `C=CCc1c(C)c(C#N)c2nc3ccccc3n2c1N1CCCCC1`, below 0.2 µg/mL; that for `Cc1nc(C)c(C(=O)O)s1`, above 23.6 µg/mL. `CN(CC(=O)Nc1c(F)cccc1F)Cc1cccs1` had a solubility (kinetic) above 44.5 µg/mL.

Compound `O=C(O)CC(CC(=O)N1CCOCC1)c1ccccc1` (stereo unspecified) came in with a solubility (kinetic) above 41.6 µg/mL.

For `Cc1ccc(NC(=O)COc2ccc(C(=O)c3ccccc3)cc2)c(O)c1`, the solubility (kinetic) worked out at 2.8 µg/mL (≈ 7.75 µM).

The compound `CCOC(=O)c1ncccc1NC(=O)CC(=O)Nc1cccnc1C(=O)OCC` came in with a kinetic solubility of 58.2 µg/mL (≈ 145 µM). Under `O=C(C1CC1)N1CCN(c2ccc(O)cc2)CC1` stands above 36.9 µg/mL; under `NS(=O)(=O)c1ccc(CCNC(=O)c2ccc(Cl)s2)cc1`, 10.6 µg/mL (≈ 30.7 µM); under `CCN(Cc1nc(-c2ccc(C)cc2)no1)C(=O)c1ccco1`, 38.9 µg/mL (≈ 125 µM). The compound `CCCSc1nc2ccccc2n1CC(=O)O` showed a kinetic solubility above 37.5 µg/mL. With `CN(C(=O)c1ccc(NC(=O)c2ccco2)cc1)c1ccccc1`, the solubility (kinetic) worked out at 2.9 µg/mL (≈ 9.05 µM). Under `CCOC(=O)N1CCN(c2ccc(S(=O)(=O)N3CCOCC3)cn2)CC1` stands 47 µg/mL (≈ 122 µM); under `Cc1ccc(OCC(=O)NC2CCCCCC2)cc1C`, 3.4 µg/mL (≈ 12.3 µM); under `CCN(c1ccccc1)S(=O)(=O)c1ccc(Cl)c(NC(=O)CNCc2ccccc2OC)c1`, 3.7 µg/mL (≈ 7.58 µM).

`Cc1ccc(C)c(NC(=O)COC(=O)CC2CC3CCC2C3)c1` (stereo unspecified) yielded a kinetic solubility of 20.4 µg/mL (≈ 64.7 µM). `COc1ccc(OCCC(=O)OCC(=O)NCc2ccc(F)cc2)cc1` displayed a solubility (kinetic) of 33.5 µg/mL (≈ 92.7 µM). The result for `Cc1ccc(S(=O)(=O)N2CCC(C(=O)N3CCC3)CC2)cc1` reads 47.4 µg/mL (≈ 147 µM); that for `O=C(NCc1ccncc1)C(=O)NC1CC1`, above 32.9 µg/mL. `O=C(/C=C/c1ccccc1)NCCc1nc2ccccc2[nH]1` gave a solubility (kinetic) of 23.7 µg/mL (≈ 81.3 µM). The result for `O=C(CSCc1ccc(Br)cc1)NCc1ccccn1` reads above 52.7 µg/mL.

Turning to `O=C(O)c1nn(-c2ccccc2C(F)(F)F)cc1O`, the solubility (kinetic) was above 40.8 µg/mL. Under `CC(C)Oc1ccc(C(=O)Nc2ccc([N+](=O)[O-])cc2)cc1` stands below 0.3 µg/mL; under `COc1ccc(/C=C2\SC(N3CCCCC3)=NC2=O)cc1OC`, 8.2 µg/mL (≈ 24.7 µM).

In turn, `N/C(=N/OC(=O)c1ccccc1Cl)c1ncc([N+](=O)[O-])s1` registered a solubility (kinetic) of 1.3 µg/mL (≈ 3.98 µM). `COc1ccc(Nc2nccc3c2ncn3C)cc1` showed a solubility (kinetic) above 38.1 µg/mL.

In turn, `CC1CCCC(C)N1C(=O)COC(=O)COc1ccc(C#N)cc1` (stereo unspecified) displayed a solubility (kinetic) above 49.6 µg/mL. Under `CCOc1ccc(C(=O)Oc2ccc(NC(C)=O)cc2)cc1` stands below 0.6 µg/mL. The result for `COc1ccc(S(=O)(=O)N2CCOCC2)cc1NC(=O)COC(=O)CC1CC2CCC1C2` (stereo unspecified) reads 11.3 µg/mL (≈ 24.2 µM); that for `O=C(CN1CCCCCC1)Nc1ccccc1[N+](=O)[O-]`, 14 µg/mL (≈ 50.5 µM).

Regarding `CSc1ccccc1C(=O)Nc1ccccc1C(=O)NC(C)C`, the kinetic solubility was above 49.3 µg/mL. The result for `CC(=O)c1cccc(OCC(O)CNCC2CCCCC2)c1` (stereo unspecified) reads above 45.8 µg/mL; that for `Cc1cccc(C(=O)OCC(=O)N2CCCCCC2)c1O`, 36 µg/mL (≈ 124 µM); that for `COc1ccccc1CNCc1cc(=O)oc2c(C)c(C)ccc12`, 3.6 µg/mL (≈ 11.1 µM).

Take `O=C(Nc1cccnc1)c1ccccc1Cl`: the kinetic solubility is above 34.9 µg/mL. The result for `Cc1cccn2cc(-c3cccc(NC(=O)c4cccs4)c3)nc12` reads 5.5 µg/mL (≈ 16.5 µM). As to `COC(=O)c1ccc(CO/N=C/c2cccc([N+](=O)[O-])c2)cc1`, the kinetic solubility is below 0.3 µg/mL.

As to `COc1ccccc1C(=O)NCCC(=O)N1CCCCC1`, the kinetic solubility is above 43.6 µg/mL. The result for `CCOc1cccc(Nc2ccc([N+](=O)[O-])cn2)c1` reads 2.4 µg/mL (≈ 9.26 µM). Under `Cc1ccccc1CC1(CO)CCCN(C(=O)CCC(F)(F)F)C1` (stereo unspecified) stands 48.3 µg/mL (≈ 141 µM); under `Nc1nc(NCC(=O)O)nc(NC2CCCCC2)c1[N+](=O)[O-]`, above 46.5 µg/mL. In the case of `CN(CCO)c1nc(N)c2c(N)nc3c(c2c1C#N)CC(=O)N3C1CCCC1`, the kinetic solubility was determined as 10.7 µg/mL (≈ 28.1 µM). `O=C(CN1CCN(Cc2cccc(F)c2)CC1)NCc1ccccc1` yielded a solubility (kinetic) of 43.1 µg/mL (≈ 126 µM).
